Data from patent US20060088471A1, “Compounds for enzyme inhibition” (Proteolix, Inc., priority 2004, published 2006).

What was measured:
8226 cells = assay: Cell viability, 8226; format: cell-based; settings: 24 hr
[1] = system: chymotryptic-like activity of the proteasome in 8226 cells; assay: Cell chymotryptic activity in 8226 cells; format: cell-based, human; settings: 1 hr
Protocol: (§1) The ability of Inhibitor 1 to inhibit the proteolytic activity of the human 20S proteasome (hu20S) both in vitro and in cells was tested using the fluorescent substrate for the chymotryptic-like activity of the proteasome, Suc-LLVY-AMC as shown in FIG. 1 and Table 1. Fluorescence was measured using the excitation wavelength of 340 nm and an emission wavelength of 465 nm. […] The assay was carried out in 20 mM Tris, pH 8.0, 0.5 mM EDTA, 0.03% SDS buffer with 5% DMSO.

[2] = molecular target: purified human 20S proteasome (Homo sapiens, UniProt P28074); assay: Binding to the proteasome via fluorescence polarization; settings: 2 nM inhibitor
Protocol: Fluorescence was measured using the excitation wavelength of 485 nm and an emission wavelength of 535 nm.
2 nM of Inhibitor 1 was incubated with a serial dilution of purified human 20S proteasome (from 400 pM to 40 nM) in a 20 mM Tris, pH 8.0, 0.5 mM EDTA, 0.03% SDS buffer and was allowed to bind to the proteasome during an incubation at room temperature as shown in FIG. 2. Fluorescence polarization was measured by exciting the samples at 485 nm and detecting the emitted fluorescence at 535 nm in a microwell plate in a fluorimeter capable of measuring fluorescence polarization (Tecan GENios Pro). […] When the concentration of human 20S was low (free Inhibitor 1), the mP was about 40 millipolarization units (mP). The fluorescence polarization at high concentrations of human 20S (bound Inhibitor 1) was about 110 mP.

[3] = molecular target: human 20S proteasome (hu20S) (Homo sapiens, UniProt P28074); assay: Human 20S chymotryptic activity, Suc-LLVY-AMC cleavage; format: biochemical; settings: for Human 20S Chymotryptic Activity kinact./Ki: 10 μM Suc-LLVY-AMC, 1 nM hu20S, 20 mM Tris pH 8.0, 0.5 mM EDTA, 0.03% SDS, 5% DMSO; for IC50 / kinact/KI: Suc-LLVY-AMC substrate; for IC50: read-out: Human 20S Chymotryptic Activity Vf IC50; for kinact/KI: read-out: Human 20S Chymotryptic Activity kobs/[I]
Protocol: Proteasome activity was measured via LLVY-AMC cleavage. Fluorescence was measured using the excitation wavelength of 340 nm and an emission wavelength of 465 nm. The assay was carried out in 20 mM Tris, pH 8.0, 0.5 mM EDTA, 0.03% SDS buffer with 5% DMSO.
as §1

[4] = molecular target: β5 subunit of human 20S or whole blood lysate (Homo sapiens, UniProt P28074); assay: Streptavidin gel shift assay compared with chymotryptic substrate cleavage assay; format: biochemical; settings: probe Inhibitor 3
Protocol: Human 20S (50 nM) or whole blood lysate (100 mg/mL) was pretreated with either DMSO or Inhibitor 4 (200 nM) for 1 h. Inhibitor 3 (1 μM) was then added. After 1 h, unbound Inhibitor 3 was removed using a spin desalting column and the resulting solution was diluted (1:10) in 1% SDS and heated at 90° C. to denature the proteins. The solution was cooled to room temperature and streptavidin (±1 μg/15 μL) was added. The inhibitor/streptavidin solution was then added to NuPAGE sample buffer at room temperature (not boiled). The sample was then loaded on NuPAGE gel and run at 150 V in a refrigerator at approximately 4° C.

HT29 cells = assay: Cell viability, HT29; format: cell-based; settings: Homo sapiens, HT-29, 72 hr
[5] = molecular target: T1, chymotryptic-like activity of the proteasome in HT29 cells (Homo sapiens, UniProt P28074); assay: Cell chymotryptic activity in HT29 cells; format: cell-based; settings: 4 hr
T1 construct: endogenous in cells; host or cells: HT29 cells
Protocol: as §1

p53 levels = settings: epoxomicin treatment; cited from earlier work

Dose response: gel shift assay versus chymotryptic substrate cleavage assay [4]	Compound	IC50 (8226 cells) [nM]	IC50 [1] [nM]	Fluorescence polarization, bound Inhibitor 1 ([2]; high concentrations of human 20S)	Fluorescence polarization, free Inhibitor 1 ([2]; low concentration of human 20S)	Human 20S Chymotryptic Activity kinact./Ki [3]	IC50 [3] [nM]	kinact/KI [3] [M⁻¹ s⁻¹]	IC50 (HT29 cells) [nM]	IC50 [5] [nM]	p53 levels stabilized (p53 levels)
	CC(C)C[C@H](NC(=O)[C@H](CCc1ccccc1)NC(=O)c1ccc(C2=C3C=CC(O)C=C3Oc3cc(O)ccc32)c(C(=O)O)c1)C(=O)N[C@@H](Cc1ccccc1)C(=O)N[C@@H](CC(C)C)C(=O)[C@@]1(C)CO1 (single isomer, unassigned) [Inhibitor 1]	191	340	about 110 mP	about 40 mP	27,000 M^-1sec^-1	9.4	23000			
comparable IC50 values	CC(C)C[C@H](NC(=O)[C@H](CCc1ccccc1)NC(=O)CN1CCOCC1)C(=O)N[C@@H](Cc1ccccc1)C(=O)N[C@@H](CC(C)C)C(=O)[C@@]1(C)CO1 [Inhibitor 4]										
	CC(=O)N[C@@H](CCc1ccccc1)C(=O)N[C@@H](CC(C)C)C(=O)N[C@@H](Cc1ccccc1)C(=O)N[C@@H](CC(C)C)C(=O)[C@@]1(C)CO1 [YU101]	5	7.3			105,000 M^-1sec^-1	2	93500	6.8	3.3	
	CC[C@H](C)[C@H](NC(=O)[C@H]([C@@H](C)CC)N(C)C(C)=O)C(=O)N[C@H](C(=O)N[C@@H](CC(C)C)C(=O)[C@@]1(C)CO1)[C@@H](C)O [epoxomicin]										over 50 fold
